Experimental data reported in EPA's ToxRefDB 2.

Assays:
rat [1] = details: Sub-acute repeat dose toxicity, sprague dawley, Oral, Gavage/Intubation, dose end: 7 day, group: systemic
primate [2] = details: Sub-acute repeat dose toxicity, Oral, Gavage/Intubation, dose end: 5 day, group: systemic
rat [3] = details: Sub-acute repeat dose toxicity, sprague dawley, Oral, Gavage/Intubation, dose end: 29 day, group: systemic
primate [4] = details: Sub-acute repeat dose toxicity; Oral; Gavage/Intubation; dose end: 28 day; group: systemic; systemic / clinical chemistry / cholesterol / cholesterol, direct ldl + systemic / hematology / erythrocyte (rbc) count differential / …
mouse [5] = details: Carcinogenicity, b6c3f1, Oral, Feed, dose end: 24 month, group: systemic
rat [6] = details: Subchronic oral toxicity in rodents, wistar, Feed, dose end: 90 day, group: systemic
rat [7] = details: Prenatal developmental toxicity study, wistar, Oral, Gavage/Intubation, dose end: 19 GD
rabbit = details: Prenatal developmental toxicity study, himalayan, Oral, Gavage/Intubation, dose end: 28 GD
mouse [8] = details: Subchronic oral toxicity in rodents, b6c3f1, Feed, dose end: 90 day, group: systemic
rat [9] = details: Multigenerational reproductive toxicity study, sprague dawley, Oral, Feed, dose end: 2 generation
rat [10] = details: Combined chronic toxicity/carcinogenicity; wistar; Oral; Feed; dose end: 2 year; group: systemic; systemic / pathology microscopic / liver / cytoplasmic alteration + systemic / pathology microscopic / liver / hypertrophy + systemic / …
dog [11] = details: Chronic toxicity, beagle, Oral, Feed, dose end: 52 week, group: systemic
dog [12] = details: Subchronic oral toxicity in nonrodent, beagle, Feed, dose end: 106 day, group: systemic
[13] = systemic / clinical chemistry / aspartate aminotransferase (ast/sgot) / aspartate aminotransferase (ast/sgot) + systemic / clinical …
[14] = systemic / clinical chemistry / gamma glutamyl transferase (ggt) / gamma glutamyl transferase (ggt) + systemic / pathology microscopic / …
[15] = systemic / hematology / blood clotting / blood clotting - activated partial thromboplastin time + systemic / hematology / fibrinogen / …
[16] = systemic / hematology / blood clotting / blood clotting - activated partial thromboplastin time + systemic / in life observation / food …
[17] = systemic / clinical chemistry / cytochrome p450, nos / cytochrome p450, nos + systemic / in life observation / clinical signs / alopecia + …
[18] = systemic / in life observation / clinical signs / salivation + systemic / organ weight / liver / absolute + systemic / pathology microscopic…
[19] = systemic / pathology microscopic / liver / degeneration + systemic / pathology microscopic / liver / fatty change + systemic / pathology …
[20] = systemic / pathology microscopic / lymph node / hemorrhage
[21] = systemic / clinical chemistry / triiodothyronine (t3) / triiodothyronine (t3), free
[22] = group: developmental, developmental / developmental malformation / bone / enlarged fontanel + developmental / developmental malformation / bone / incomplete …
[23] = group: maternal, reproductive / reproductive performance / resorptions / resorptions + systemic / in life observation / body weight / body weight + systemic…
[24] = group: developmental, systemic / in life observation / body weight / fetal weight
[25] = group: developmental, systemic / in life observation / body weight / fetal weight + developmental / developmental malformation / bone / full supernumerary + …
[26] = group: maternal, systemic / in life observation / body weight / body weight gain + systemic / in life observation / clinical signs / defecation + systemic / …
[27] = systemic / pathology microscopic / adrenal gland / fatty change + systemic / pathology microscopic / adrenal gland / hypertrophy
[28] = systemic / pathology microscopic / liver / hypertrophy
[29] = group: offspring, systemic / in life observation / body weight / offspring (pup) weight
[30] = group: parental, systemic / organ weight / liver / absolute + systemic / organ weight / liver / relative to body weight + systemic / organ weight / thyroid …
[31] = group: reproductive, reproductive / reproductive performance / dystocia / dystocia
[32] = systemic / organ weight / prostate / nos
[33] = systemic / organ weight / spleen / nos
[34] = systemic / clinical chemistry / [other] / [other] + systemic / clinical chemistry / epoxide hydrolase / epoxide hydrolase + systemic / …
[35] = systemic / clinical chemistry / epoxide hydrolase / epoxide hydrolase + systemic / pathology microscopic / prostate / secretory fluid

Structure (SMILES): CC[C@@H]1C[C@H](N(Cc2cc(C(F)(F)F)cc(C(F)(F)F)c2)C(C)=O)c2cc(C(F)(F)F)ccc2N1C(=O)OC(C)C
- LOAEL (rat [1]; [13]): > 700 mg/kg/day
- NOAEL (rat [1]; [13]): ≥ 700 mg/kg/day
- LEL (rat [1]; [14]): 10 mg/kg/day
- NEL (rat [1]; [14]): < 10 mg/kg/day
- LOAEL (primate [2]; [15]): > 140 mg/kg/day
- NOAEL (primate [2]; [15]): ≥ 140 mg/kg/day
- LEL (primate [2]; [16]): 10 mg/kg/day
- NEL (primate [2]; [16]): < 10 mg/kg/day
- LOAEL (rat [3]; [17]): > 125 mg/kg/day
- NOAEL (rat [3]; [17]): ≥ 125 mg/kg/day
- LEL (rat [3]; [18]): 2 mg/kg/day
- NEL (rat [3]; [18]): < 2 mg/kg/day
- LEL (primate [4]): 10 mg/kg/day
- LOAEL (primate [4]): > 140 mg/kg/day
- NEL (primate [4]): < 10 mg/kg/day
- NOAEL (primate [4]): ≥ 140 mg/kg/day

Structure (SMILES): N#CN=C1SCCN1Cc1ccc(Cl)nc1 [Thiacloprid]
- LOAEL (mouse [5]; [19]): 234 mg/kg/day
- NOAEL (mouse [5]; [19]): 5.7 mg/kg/day
- LEL (mouse [5]; [20]): 5.7 mg/kg/day
- NEL (mouse [5]; [20]): < 5.7 mg/kg/day
- LEL (rat [6]; [21]): 1.9 mg/kg/day
- NEL (rat [6]; [21]): < 1.9 mg/kg/day
- LOAEL (rat [6]; systemic / in life observation / body weight / body weight): 28.6 mg/kg/day
- NOAEL (rat [6]; systemic / in life observation / body weight / body weight + systemic / clinical chemistry / cholesterol / cholesterol + systemic / clinical…): 7.3 mg/kg/day
- LEL (rat [7]; [22]): 50 mg/kg/day
- LOAEL (rat [7]; [22]): 50 mg/kg/day
- NEL (rat [7]; [22]): 10 mg/kg/day
- NOAEL (rat [7]; [22]): 10 mg/kg/day
- LEL (rat [7]; [23]): 50 mg/kg/day
- LOAEL (rat [7]; [23]): 50 mg/kg/day
- NEL (rat [7]; [23]): 10 mg/kg/day
- NOAEL (rat [7]; [23]): 10 mg/kg/day
- LEL (rabbit; [24]): 10 mg/kg/day
- LOAEL (rabbit; [24]): 10 mg/kg/day
- NEL (rabbit; [25]): 2 mg/kg/day
- NOAEL (rabbit; [25]): 2 mg/kg/day
- LEL (rabbit; [26]): 10 mg/kg/day
- LOAEL (rabbit; [26]): 10 mg/kg/day
- NEL (rabbit; [26]): 2 mg/kg/day
- NOAEL (rabbit; [26]): 2 mg/kg/day
- LOAEL (mouse [8]; [27]): 27.2 mg/kg/day
- NOAEL (mouse [8]; [27]): < 27.2 mg/kg/day
- LEL (mouse [8]; [28]): 19.9 mg/kg/day
- NEL (mouse [8]; [28]): < 19.9 mg/kg/day
- LEL (rat [9]; [29]): 21 mg/kg/day
- LOAEL (rat [9]; [29]): 21 mg/kg/day
- NEL (rat [9]; [29]): 3.5 mg/kg/day
- NOAEL (rat [9]; [29]): 3.5 mg/kg/day
- LOAEL (rat [9]; [30]): 21 mg/kg/day
- NEL (rat [9]; [30]): 3.5 mg/kg/day
- NOAEL (rat [9]; [30]): 3.5 mg/kg/day
- LEL (rat [9]; group: parental, systemic / organ weight / liver / absolute + systemic / organ weight / liver / relative to body weight + systemic / pathology microscopic / …): 21 mg/kg/day
- LEL (rat [9]; [31]): 26 mg/kg/day
- LOAEL (rat [9]; [31]): 26 mg/kg/day
- NEL (rat [9]; [31]): 4.2 mg/kg/day
- NOAEL (rat [9]; [31]): 4.2 mg/kg/day
- LEL (rat [10]): 2.5 mg/kg/day
- LOAEL (rat [10]): 2.5 mg/kg/day
- NEL (rat [10]): 1.2 mg/kg/day
- NOAEL (rat [10]): 1.2 mg/kg/day
- LOAEL (dog [11]; [32]): > 32.2 mg/kg/day
- NOAEL (dog [11]; [32]): ≥ 32.2 mg/kg/day
- LEL (dog [11]; [33]): 1.39 mg/kg/day
- NEL (dog [11]; [33]): < 1.39 mg/kg/day
- LOAEL (dog [12]; [34]): 34.7 mg/kg/day
- NOAEL (dog [12]; [34]): 8.9 mg/kg/day
- LEL (dog [12]; [35]): 8.5 mg/kg/day
- NEL (dog [12]; [35]): < 8.5 mg/kg/day
